The results in this text go back to PubChem BioAssay (NCI).

Some test systems named below: HCT-116 colon; K-562 leukemia; MALME-3M melanoma; MCF7 breast; NCI-H23 lung; OVCAR-3 ovarian; PC-3 prostate; SF-539 CNS; SNB-75 CNS; TK-10 renal.
Common to all, as to experiment: NCI anticancer screen, dose series, 48 h

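Test compounds were applied to cells in 96-well plates for 48 hours at 5 doses. GI50 marks 50% less growth. TGI is the concentration that stops growth completely.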

As to `COc1ccc(/C=N/NC(=O)Cn2c(-c3ccc(S(C)(=O)=O)cc3)nc3cc(Cl)ccc32)cc1`, the GI50 in the test with HCT-116 colon is 445 nM; in the test on K-562 leukemia, 343 nM; with MALME-3M melanoma, 2300 nM; in the test on MCF7 breast, 1920 nM; with NCI-H23 lung it was 2390 nM; in the test on OVCAR-3 ovarian, 367 nM. The GI50 with PC-3 prostate is 674 nM; with SF-539 CNS, 855 nM; in the test on SNB-75 CNS, 1050 nM; with TK-10 renal, 4.7 µM. Further, the TGI in the test with HCT-116 colon is more than 50 µM; in the test with K-562 leukemia, more than 50 µM; with MALME-3M melanoma, 46.4 µM; in the test with MCF7 breast, more than 50 µM; in the test with NCI-H23 lung, more than 50 µM; with OVCAR-3 ovarian, more than 50 µM. Also, the TGI with PC-3 prostate is more than 50 µM; in the test on SF-539 CNS it was 3.35 µM; in the test on SNB-75 CNS it was more than 50 µM; with TK-10 renal it was more than 50 µM.
In the case of `Nc1ccc(-c2nc3ccccc3[nH]2)c2ccccc12`, the GI50 is 3300 nM in the test on HCT-116 colon; 2540 nM in the test on K-562 leukemia; 1360 nM in the test on MALME-3M melanoma; 2380 nM in the test with MCF7 breast; 3240 nM in the test on NCI-H23 lung; 2500 nM in the test with OVCAR-3 ovarian. Moreover, the GI50 in the test on PC-3 prostate is 6490 nM; in the test on SF-539 CNS, 3110 nM; in the test with SNB-75 CNS, 809 nM; in the test with TK-10 renal, 7.24 µM. The TGI is 12.6 µM in the test on HCT-116 colon; more than 100 µM in the test with K-562 leukemia; 21.6 µM in the test on MALME-3M melanoma; more than 100 µM in the test with MCF7 breast; more than 30.3 µM in the test on NCI-H23 lung; more than 41.4 µM in the test on OVCAR-3 ovarian. Moreover, the TGI is more than 100 µM with PC-3 prostate, 17 µM in the test on SF-539 CNS, 4.39 µM in the test on SNB-75 CNS and more than 100 µM in the test on TK-10 renal.
For `N#CN1CC[C@H](C(=O)Nc2ncc(-c3ccncc3)s2)C1`, the GI50 is 40.1 nM with HCT-116 colon; 47.1 nM with K-562 leukemia; less than 12.9 nM with MALME-3M melanoma; less than 10.9 nM in the test on MCF7 breast; 26.9 nM in the test with NCI-H23 lung; less than 16.2 nM with OVCAR-3 ovarian. The GI50 is 58.2 nM in the test with PC-3 prostate, less than 16 nM in the test on SF-539 CNS, less than 14.8 nM in the test with SNB-75 CNS and 0.109 µM in the test with TK-10 renal. Moreover, the TGI in the test with HCT-116 colon is 3.2 µM; in the test with K-562 leukemia, more than 100 µM; with MALME-3M melanoma, 0.0694 µM; in the test with MCF7 breast, more than 70.2 µM; in the test with NCI-H23 lung it was 3.44 µM; with OVCAR-3 ovarian it was 0.989 µM. The TGI in the test on PC-3 prostate is 12.7 µM; in the test on SF-539 CNS it was 0.164 µM; with SNB-75 CNS, 0.53 µM; in the test on TK-10 renal it was 6.18 µM.
Regarding `CN(CC(N)=O)C(=O)N(CCCl)N=O`, the TGI with HCT-116 colon, in the test with K-562 leukemia, in the test with MALME-3M melanoma, in the test with MCF7 breast, in the test with NCI-H23 lung and in the test with OVCAR-3 ovarian was more than 100 µM each time. In addition, the TGI in the test with PC-3 prostate, in the test with SF-539 CNS, with SNB-75 CNS and with TK-10 renal was more than 100 µM in each case.
In the case of `Cc1cccc(NC(=O)c2sc3nc4c(cc3c2N)CN(Cc2ccccc2)CC4)c1C`, the GI50 with HCT-116 colon was 227 nM; in the test on K-562 leukemia, 104 nM; with MALME-3M melanoma, 239 nM; with MCF7 breast, 151 nM; in the test on NCI-H23 lung, 256 nM; in the test with OVCAR-3 ovarian, 194 nM. Also, the GI50 in the test with PC-3 prostate is 210 nM; in the test on SF-539 CNS, 165 nM; in the test with SNB-75 CNS, 112 nM; with TK-10 renal, 5.36 µM. The TGI was more than 50 µM with HCT-116 colon; more than 50 µM in the test on K-562 leukemia; more than 50 µM with MALME-3M melanoma; more than 50 µM in the test on MCF7 breast; more than 50 µM with NCI-H23 lung; 31.9 µM with OVCAR-3 ovarian. Further, the TGI in the test with PC-3 prostate was more than 50 µM; with SF-539 CNS, 28.2 µM; in the test with SNB-75 CNS it was 0.419 µM; in the test with TK-10 renal, more than 50 µM.
Regarding `COC(=O)c1nc(-c2ccccc2)oc1S(=O)(=O)n1nc(C)cc1N`, the GI50 with HCT-116 colon was 4730 nM; in the test on K-562 leukemia, 2130 nM; in the test on MALME-3M melanoma, 1780 nM; with MCF7 breast, 6950 nM; in the test on NCI-H23 lung it was 16700 nM; with OVCAR-3 ovarian, 2030 nM. For the same compound, the GI50 in the test on PC-3 prostate was 18300 nM; in the test on SF-539 CNS it was 14400 nM; in the test with SNB-75 CNS, 13200 nM; in the test with TK-10 renal, 11.3 µM. Further, the TGI in the test with HCT-116 colon is 17.6 µM; with K-562 leukemia it was 6.98 µM; in the test on MALME-3M melanoma, 4.06 µM; in the test on MCF7 breast, 27.5 µM; in the test on NCI-H23 lung, 35.9 µM; with OVCAR-3 ovarian it was 3.99 µM. Also, the TGI came out at 33.5 µM with PC-3 prostate, 27.7 µM in the test on SF-539 CNS, 26.6 µM in the test with SNB-75 CNS and 24.6 µM in the test with TK-10 renal.
With `CC(C)(C)c1ccc(C(=O)Nc2sc3c(c2C(N)=O)CCC(=O)C3)cc1`, the GI50 with HCT-116 colon is 287 nM; in the test with K-562 leukemia, 127 nM; in the test on MALME-3M melanoma, 906 nM; with MCF7 breast it was 402 nM; with NCI-H23 lung, 423 nM; in the test on OVCAR-3 ovarian, 426 nM. Further, the GI50 with PC-3 prostate was 188 nM; in the test on SF-539 CNS it was 438 nM; in the test with SNB-75 CNS, 1110 nM; in the test on TK-10 renal, 1.42 µM. Moreover, the TGI in the test with HCT-116 colon came out at 1.29 µM; in the test on MALME-3M melanoma it was 2.66 µM; in the test with MCF7 breast, 2.96 µM; in the test on NCI-H23 lung, 1.86 µM; in the test with OVCAR-3 ovarian it was 1.52 µM; in the test on PC-3 prostate it was 1.48 µM. Also, the TGI with SF-539 CNS was 1.61 µM; in the test with SNB-75 CNS, 2.53 µM; in the test with TK-10 renal, 4.77 µM.
